The text below walks through data of patent publication EP4559908A1, “HETEROARYL DERIVATIVE COMPOUND AND USE THEREOF” (S2CBio Inc., priority 2022, dated 2024).

Bounds are passed on as bounds.

For the assay, the target named is T1, human ANO6 (variant 5) (Homo sapiens, UniProt Q4KMQ2).
T1 construct: expressed in transfected cells; host or cells: Fischer rat thyroid (FRT) cells
T1 sequence (Q4KMQ2 1-931 isoform Q4KMQ2-2): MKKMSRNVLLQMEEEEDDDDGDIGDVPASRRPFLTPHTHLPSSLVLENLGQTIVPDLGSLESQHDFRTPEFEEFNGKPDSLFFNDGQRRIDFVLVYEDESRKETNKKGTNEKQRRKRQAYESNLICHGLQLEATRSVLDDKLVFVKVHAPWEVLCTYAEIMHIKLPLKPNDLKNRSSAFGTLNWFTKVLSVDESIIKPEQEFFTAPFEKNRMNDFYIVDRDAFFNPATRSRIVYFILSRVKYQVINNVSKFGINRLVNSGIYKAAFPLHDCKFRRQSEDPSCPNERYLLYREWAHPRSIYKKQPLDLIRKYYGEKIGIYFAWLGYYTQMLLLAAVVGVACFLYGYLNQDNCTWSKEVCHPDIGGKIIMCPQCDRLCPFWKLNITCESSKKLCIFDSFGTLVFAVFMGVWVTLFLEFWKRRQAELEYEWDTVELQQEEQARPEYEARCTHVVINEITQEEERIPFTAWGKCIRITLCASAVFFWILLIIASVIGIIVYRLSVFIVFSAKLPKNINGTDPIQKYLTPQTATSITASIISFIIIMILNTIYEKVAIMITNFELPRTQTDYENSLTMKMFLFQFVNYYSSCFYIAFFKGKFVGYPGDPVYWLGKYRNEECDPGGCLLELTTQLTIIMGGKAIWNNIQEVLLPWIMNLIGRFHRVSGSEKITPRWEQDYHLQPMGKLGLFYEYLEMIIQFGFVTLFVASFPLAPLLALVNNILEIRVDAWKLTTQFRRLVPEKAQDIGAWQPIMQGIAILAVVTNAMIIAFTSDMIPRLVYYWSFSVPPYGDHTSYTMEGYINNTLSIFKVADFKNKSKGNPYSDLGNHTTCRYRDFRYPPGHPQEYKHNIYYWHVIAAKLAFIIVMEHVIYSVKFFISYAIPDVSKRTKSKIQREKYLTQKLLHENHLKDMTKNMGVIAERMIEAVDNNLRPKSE
Kind of assay: Lact C2 assay (measuring phosphatidylserine externalization scramblase function). Conditions: FRT, FRT cells expressing human ANO6 (variant 5), ionomycin 10 µM, Lact-C2-GFP fluorescence, average of three tests; for inhibition at 1 µM: compound 1 µM, read-out: % Inhibition 1 µM; for inhibition at 0.05 µM: compound 50 nM, read-out: % Inhibition 50 nM; for inhibition at 0.1 µM: compound 100 nM. The assay is classed as cell-based. As to the method:
Ionomycin (Alomonelab, cat. # I-700), DAPI (Sigma- Aldrich, cat. # D8417), paraformaldehyde (Biosesang, cat. #P2031), Lionheart FX automated fluorescence microscope (BioTek), Gen5™ software program (BioTek), and Image J analysis software program.
After the incubation, the cells were treated with compounds dissolved in DMSO to 1% v/v in each well at each concentration (50 nM, 100 nM, and 1 µM) and reacted for 10 minutes. Thereafter, each well was treated with ionomycin to a final concentration of 10 µM, allowed to react for 10 minutes, and then washed with 200 µL PBS. After washing, each well was treated with 50 µL of Lactadherin-C2 (Lact-C2)-GFP mixed in DMEM medium to a final concentration of 500 nM to stain phosphatidylserine, and cultured at 37°C for 10 minutes. After completion of the reaction, the cells were washed with 200 µL PBS, and fixed with 4% paraformaldehyde for 5 minutes at room temperature. For morphological analysis, DAPI solution was added, and the cells were incubated for 15 minutes, followed by washing with PBS. The fluorescence intensity of Lact-C2-GFP bound to phosphatidylserine on the cell surface was measured using an automated fluorescence microscope. For quantitative analysis of the fluorescence intensity of Lact-C2-GFP, BioTek Gen5™ software and Image J analysis software programs were used.
Phosphatidylserine externalization inhibitory activity (%) by the compound was calculated through the following analysis method. Specifically, the background fluorescence value was subtracted from the measured Lact-C2-GFP fluorescence value, and the fluorescence value of the ionomycin non-treatment group and the ionomycin-treatment group in the same row where each test group was located in a 96-well microplate were calculated. In order to calculate the inhibitory activity (%) by the compound, the relative inhibitory activity was calculated by setting the compound and ionomycin non-treatment group to 100% inhibitory activity and the ionomycin alone treatment group to 0% inhibitory activity.

As to `c1ccc(-c2cnc(Nc3cccc(-c4nc5ccccc5[nH]4)c3)nn2)cc1` [Example 271, N-(3-(1H-benzo[d]imidazol-2-yl)phenyl)-6-phenyl-1,2,4-triazin-3-amine], the inhibition at 1 µM was 30 to 60%.

As to `FC(F)Oc1ccc2nc(-c3cccc(Nc4ncc(-c5ccccn5)cn4)c3)[nH]c2c1` [Example 285, N-(3-(6-(difluoromethoxy)-1H-benzo[d]imidazol-2-yl)phenyl)-5-(pyridin-2-yl)pyrimidin-2-amine], the inhibition at 0.05 µM was greater than 60% and the inhibition at 1 µM is greater than 60%.

On to `FC(F)(F)c1ccc2nc(-c3cccc(Nc4ccc(-c5ccncn5)cc4)c3)[nH]c2c1` [Example 24, N-(4-(pyrimidin-4-yl)phenyl)-3-(6-(trifluoromethyl)-1H-benzo[d]imidazol-2-yl)aniline], for which the inhibition at 0.05 µM is greater than 60%, the inhibition at 0.1 µM was greater than 60% and the inhibition at 1 µM was greater than 60%.

Turning to `c1cc(Nc2ccc(-c3cnccn3)cc2)cc(-c2nc3ccccc3[nH]2)c1` [Example 32, 3-(1H-benzo[d]imidazol-2-yl)-N-(4-(pyrazin-2-yl)phenyl)aniline], the inhibition at 0.05 µM lay in the range of 30 to 60% and the inhibition at 0.1 µM was 30 to 60%.

On to `Clc1cc2[nH]c(-c3cccc(Nc4ccc(-c5cccnn5)cc4)c3)nc2cn1` [Example 84, 3-(6-chloro-1H-imidazo[4,5-c]pyridin-2-yl)-N-(4-pyridazin-3-ylphenyl)aniline], for which the inhibition at 1 µM is greater than 60%.

Turning to `c1cc(Nc2ccc(-c3ccncc3)cc2)cc(-c2nc3ccccc3[nH]2)c1` [Example 33, N-[3-(1H-benzo[d]imidazol-2-yl)phenyl]-4-(pyridin-4-yl)aniline], the inhibition at 0.05 µM lay in the range of 30 to 60% and the inhibition at 0.1 µM was in the range of 30 to 60%.

Take `FC(F)(F)c1ccc2nc(-c3cccc(Nc4ncc(-c5ccccn5)cn4)c3)[nH]c2c1` [Example 83, 5-(2-pyridyl)-N-[3-[6-(trifluoromethyl)-1H-benzo[d]imidazol-2-yl]phenyl]pyrimidin-2-amine]: the inhibition at 0.05 µM was greater than 60%.

On to `N#Cc1ccc(Nc2cccc(-c3nc4ccc(C(F)(F)F)cc4[nH]3)c2)cc1` [Example 315, 4-((3-(6-(trifluoromethyl)-1H-benzo[d]imidazol-2-yl)phenyl)amino)benzonitrile], for which the inhibition at 1 µM is greater than 60%.

For the compound `Clc1cc2[nH]c(-c3cccc(Nc4ccc(-c5ccncn5)cc4)c3)nc2cn1` [Example 117, 3-(6-chloro-1H-imidazo[4,5-c]pyridin-2-yl)-N-(4-pyrimidin-4-ylphenyl)aniline], the inhibition at 1 µM was greater than 60%.

For `COc1ccc(-c2ccc(Nc3cccc(-c4nc5ccccc5[nH]4)c3)cc2)nn1` [Example 275, 3-(1H-benzo[d]imidazol-2-yl)-N-(4-(6-methoxypyridazin-3-yl)phenyl)aniline], the inhibition at 1 µM was greater than 60%.

In the case of `FC(F)(F)Oc1ccc2nc(-c3cccc(Nc4ccc(-c5ccccc5)nn4)c3)[nH]c2c1` [Example 6, 6-phenyl-N-(3-(6-(trifluoromethoxy)-1H-benzo[d]imidazol-2-yl)phenyl)pyridazin-3-amine], the inhibition at 0.1 µM was greater than 60% and the inhibition at 1 µM was greater than 60%.

For the compound `Clc1cc2nc(-c3cccc(Nc4ccc(-c5ccccc5)cn4)c3)[nH]c2cc1Cl` [Example 13, N-[3-(5,6-dichloro-1H-benzo[d]imidazol-2-yl)phenyl]-5-phenylpyridin-2-amine], the inhibition at 0.05 µM is greater than 60%, the inhibition at 0.1 µM was greater than 60% and the inhibition at 1 µM was greater than 60%.

With `Clc1cccc2nc(-c3cccc(Nc4ccc(-c5cccnn5)cc4)c3)[nH]c12` [Example 115, 3-(7-chloro-1H-benzo[d]imidazol-2-yl)-N-(4-pyridazin-3-ylphenyl)aniline], the inhibition at 1 µM is greater than 60%.

Take `Fc1ccc2nc(-c3cccc(Nc4ccc(-c5ccccn5)cc4)c3)[nH]c2c1` [Example 92, 3-(6-fluoro-1H-benzo[d]imidazol-2-yl)-N-[4-(2-pyridyl)phenyl]aniline]: the inhibition at 0.05 µM is greater than 60% and the inhibition at 1 µM was greater than 60%.

Turning to `Fc1ccc2nc(-c3cccc(Nc4ccc(-c5cccnn5)cc4)c3)[nH]c2c1` [Example 25, 3-(6-fluoro-1H-benzo[d]imidazol-2-yl)-N-(4-(pyridazin-3-yl)phenyl)aniline], the inhibition at 0.05 µM is greater than 60%, the inhibition at 0.1 µM is greater than 60% and the inhibition at 1 µM is greater than 60%.

With `FC(F)(F)Oc1ccc2nc(-c3cccc(Nc4ccc(-c5cccnn5)cc4)c3)[nH]c2c1` [Example 230, N-(4-(pyridazin-3-yl)phenyl)-3-(6-(trifluoromethoxy)-1H-benzo[d]imidazol-2-yl)aniline], the inhibition at 0.05 µM is greater than 60% and the inhibition at 1 µM was greater than 60%.

Take `Fc1ccc(-c2ccc(Nc3cccc(-c4nc5ccccc5[nH]4)c3)cc2)nn1` [Example 265, 3-(1H-benzo[d]imidazol-2-yl)-N-(4-(6-fluoropyridazin-3-yl)phenyl)aniline]: the inhibition at 0.05 µM was greater than 60%.

On to `Fc1ccc(-c2cnc(Nc3cccc(-c4nc5ccc(C(F)(F)F)cc5[nH]4)c3)nc2)nc1` [Example 260, 5-(5-fluoropyridin-2-yl)-N-(3-(6-(trifluoromethyl)-1H-benzo[d]imidazol-2-yl)phenyl)pyrimidin-2-amine], for which the inhibition at 0.05 µM fell in the range of 30 to 60% and the inhibition at 1 µM is greater than 60%.

Regarding `Nc1cc(Nc2cccc(-c3nc4ccccc4[nH]3)c2)ccc1-c1cccnn1` [Example 207, N^1-(3-(1H-benzo[d]imidazol-2-yl)phenyl)-4-(pyridazin-3-yl)benzene-1,3-diamine], the inhibition at 1 µM was greater than 60%.

As for `FC(F)(F)c1ccc2nc(-c3cccc(Nc4ccc(-c5cncnc5)cc4)c3)[nH]c2c1` [Example 28, N-[4-(pyrimidin-5-yl)phenyl]-3-[6-(trifluoromethyl)-1H-benzo[d]imidazol-2-yl]aniline], the inhibition at 0.05 µM was greater than 60% and the inhibition at 0.1 µM was greater than 60%.

For the compound `Fc1cc2nc(-c3cccc(Nc4cnc(-c5ccccn5)cn4)c3)[nH]c2cc1F` [Example 298, N-(3-(5,6-difluoro-1H-benzo[d]imidazol-2-yl)phenyl)-5-(pyridin-2-yl)pyrazin-2-amine], the inhibition at 0.05 µM is 30 to 60% and the inhibition at 1 µM is greater than 60%.

On to `c1cc(Nc2ccc(-c3ccncn3)nn2)cc(-c2nc3ccccc3[nH]2)c1` [Example 257, N-(3-(1H-benzo[d]imidazol-2-yl)phenyl)-6-(pyrimidin-4-yl)pyridazin-3-amine], for which the inhibition at 1 µM fell in the range of 30 to 60%.

As to `FC(F)Oc1ccc2nc(-c3cccc(Nc4ncc(-c5cccnn5)cn4)c3)[nH]c2c1` [Example 287, N-(3-(6-(difluoromethoxy)-1H-benzo[d]imidazol-2-yl)phenyl)-5-(pyridazin-3-yl)pyrimidin-2-amine], the inhibition at 1 µM fell in the range of 30 to 60%.

As for `Fc1cccc(-c2ccc(Nc3cccc(-c4nc5ccc(C(F)(F)F)cc5[nH]4)c3)nc2)c1` [Example 18, 5-(3-fluorophenyl)-N-(3-(6-(trifluoromethyl)-1H-benzo[d]imidazol-2-yl)phenyl)pyridin-2-amine], the inhibition at 0.05 µM is greater than 60%, the inhibition at 0.1 µM was greater than 60% and the inhibition at 1 µM is greater than 60%.

As usually defined, the inhibition is the change of the read-out against control, counted positive when it falls.
